Laboratory results reported in patent US12578343B2, “Selective ACKR3 modulators and uses thereof” (Luxembourg Institute of Health (LIH), priority 2019, dated 2026).
pEC50: −log10 of the molar value.

Legend:
[1] = test system: rat locus coeruleus neurons; type: cell-based
Description: 1.9. Ex Vivo Rat Neuron Depolarization
Adult male Wistar rats (6 to 8-week old) were housed at room temperature in groups of three or four with a 12:12 hour light-dark cycle. All animals had access to ad libitum food and water. All procedures were carried out in accordance with guidelines of the European Communities Council Directive of 24 Nov. 1986 (86609EE) and were accepted by the Ethics Committee for Animal Use of the University of Liège (protocol 2061). All efforts were made to minimize animal suffering.
1.9.2. Brain Explant Preparation and Recording Procedures
Rats were anaesthetized with chloral hydrate (400 mg/kg, i.p.) and placed under a cap with oxygenated air (95% O2, 5% CO2) two minutes prior to decapitation. After decapitation, the brain was rapidly removed and placed in ice cold (˜2° C.) oxygenated artificial cerebrospinal fluid (aCSF) of the following composition: NaCl 130 mM, KCl 3.5 mM, NaH2PO4 1.25 mM, NaHCO3 24 mM, Glucose 10 mM, CaCl2 2 mM, MgSO4 1.25 mM. A block of tissue containing the pons was placed in a vibrating blade microtome (Vibratome 1000 Plus, Sectioning System) and a slice containing the locus coeruleus (LC) immediately rostral to the fourth ventricle and the VIIth nerve, used as anatomical landmarks, was cut coronally (400 μm thick). The slice was placed on a nylon mesh in a recording chamber (volume: 0.5 ml) where it was superfused by oxygenated aCSF (34.0±0.5° C.) at a rate of 2 to 3 ml/min. The LC was recognized as a translucent region during transillumination, lateral to the fourth ventricle. All experiments were performed in oxygenated aCSF with synaptic blockers consisting of 10 μM CNQX, 10 μM SR95531, 1 μM MK801, and 1 μM CGP55845, which block AMPA/Kainate, GABAA, NMDA, and GABAB receptors, respectively. This ensured that the spontaneous firing of the neurons was only due to its endogenous pace making.
Extracellular single cell recordings of LC neurons were performed with glass microelectrodes filled with aCSF (resistance 10-20 MΩ). Signals were passed through an impedance adapter and were amplified 1000× using a home-made amplifier. […] Data were collected and analysed with the Spike 2 software (Cambridge Electronic Design). […] The duration of the extracellularly recorded action potentials was 2-3 ms. Drugs and peptides were applied for at least 10 minutes.
The mean firing rate over 1 minute was calculated during each condition. Next, the inhibition of firing by the peptides and drugs used (LIH383 and dynorphin) was quantified as the % of total inhibition. For this purpose, present inventors considered the mean firing rate during the last minute of each condition (control, LIH383 alone, LIH383 plus a given concentration of dynorphin).

ACKR3 [2] = biological target: T1, ACKR3 (Homo sapiens, UniProt P25106); assay: ACKR3-mediated depletion of extracellular dynorphin A monitored by its ability to activate KOR (U87-ACKR3 cells); type: cell-based; parameters: expressed in transfected cells; for the receptor comparison in the uptake assay, transient pcDNA3.1); details: for reversal of the ACKR3-mediated impairment of dynorphin A potency to activate KOR by pre-treatment: pre-treatment of ACKR3-expressing cells, saturating concentration
Description: (§1) In brief, 1.2×10^6 U87 cells were plated in 10 cm-culture dishes and 48 hours later co-transfected with pNBe vectors encoding GPCRs C-terminally tagged to SmBiT and human β-arrestin-1 or -2 or mini G proteins (mG, engineered GTPase domains of Gα subunits,) N-terminally fused to LgBiT. 48 hours post-transfection cells were harvested, incubated 25 minutes at 37° C. with Nano-Glo Live Cell substrate diluted 200-fold and distributed into white 96-well plates (5×10^4 cells per well). Ligand-induced, β-arrestin and mG recruitment to GPCRs was evaluated with a Mithras LB940 luminometer (Berthold Technologies) for 20 minutes. For concentration-response curves, the signal recorded with a saturating concentration of full agonist for each receptor was set as 100%.
Target sequence in this assay (P25106 whole entry, the tested form may be a part): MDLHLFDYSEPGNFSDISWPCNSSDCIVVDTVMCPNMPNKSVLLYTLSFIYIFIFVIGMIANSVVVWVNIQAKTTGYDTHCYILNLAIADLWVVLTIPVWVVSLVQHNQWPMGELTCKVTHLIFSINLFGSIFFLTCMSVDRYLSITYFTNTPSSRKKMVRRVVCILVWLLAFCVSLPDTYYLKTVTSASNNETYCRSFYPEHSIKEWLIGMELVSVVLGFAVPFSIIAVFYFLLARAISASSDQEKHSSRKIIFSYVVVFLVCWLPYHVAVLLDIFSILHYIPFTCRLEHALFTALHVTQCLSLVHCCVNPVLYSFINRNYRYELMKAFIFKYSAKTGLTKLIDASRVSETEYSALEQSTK

ACKR3 [3] = biological target: T1, ACKR3; type: cell-based; parameters: expressed in transfected cells; host or cells: U87 cells, transient co-transfection of pNBe vectors
Target sequence in this assay (P25106 whole entry, the tested form may be a part): as above
Target sequence in this assay (P49407 whole entry partner, the tested form may be a part): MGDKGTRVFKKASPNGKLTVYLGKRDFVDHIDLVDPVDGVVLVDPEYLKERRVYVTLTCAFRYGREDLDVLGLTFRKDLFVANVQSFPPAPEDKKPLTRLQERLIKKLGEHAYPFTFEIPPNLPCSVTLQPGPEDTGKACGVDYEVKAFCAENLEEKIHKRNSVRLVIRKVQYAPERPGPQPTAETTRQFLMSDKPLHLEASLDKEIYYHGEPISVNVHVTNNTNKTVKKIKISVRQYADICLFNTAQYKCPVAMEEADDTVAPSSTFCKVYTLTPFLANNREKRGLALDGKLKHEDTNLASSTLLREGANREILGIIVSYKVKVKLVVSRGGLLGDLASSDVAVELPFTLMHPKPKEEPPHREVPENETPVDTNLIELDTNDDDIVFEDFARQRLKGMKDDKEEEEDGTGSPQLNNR

ACKR3 [4] = assay: ACKR3 | EC50 (nM)
Text: Table printed on a drawing sheet, FIG. 3 (continued) F
Head of the field: ACKR3 | EC50 (nM)
Footnotes: *NH2-substituted at C-terminus
The patent's description of the figure: FIG. 3. Structure-activity relationship analysis of adrenorphin variants on ACKR3 and classical opioid receptors. (A) Comparison of the impact of substitutions, truncations, extensions, D-amino acid replacement or dimerization on the agonist activity of adrenorphin towards ACKR3, MOR, DOR, KOR and NOP. The agonist activity or each variant was evaluated in β-arrestin-1 recruitment assay in U87 cells and expressed as fold change over the activity of wild-type adrenorphin. (B-E) Comparison of potency and efficacy of adrenorphin (B) and its variants bearing mutations Y1F (C), M5L (D) and R6A (E) to induce β-arrestin-1 recruitment to ACKR3 and the opioid receptors KOR, MOR, DOR and NOP in U87 cells. “˜” indicates a similar impact of the modification on the potency of the peptide towards ACKR3 and the indicated opioid receptor. Results represent the mean±S.E.M. (n ? 3) (F) Comparison of the potencies of peptide variants combining mutations Y1F with other modifications (mutations and/or extension) to induce β-arrestin-1 recruitment to ACKR3. Modified amino acids with respect to the mother peptide (Y1F adrenorphin […]) are underlined and in bold.
First copying reader's note: Bold underlined residues in the sequences mark modifications relative to the mother peptide; the pEC50 cells include the SEM after ±.
Where the first naming reader finds the target: head: ACKR3

KOR = KOR (Homo sapiens, UniProt P41145); assay: β-arrestin-1 recruitment to KOR (NanoBiT, U87 cells); type: cell-based; parameters: expressed in transfected cells; host or cells: U87 cells, transient co-transfection of pNBe vectors
Sequence of KOR (P41145 whole entry): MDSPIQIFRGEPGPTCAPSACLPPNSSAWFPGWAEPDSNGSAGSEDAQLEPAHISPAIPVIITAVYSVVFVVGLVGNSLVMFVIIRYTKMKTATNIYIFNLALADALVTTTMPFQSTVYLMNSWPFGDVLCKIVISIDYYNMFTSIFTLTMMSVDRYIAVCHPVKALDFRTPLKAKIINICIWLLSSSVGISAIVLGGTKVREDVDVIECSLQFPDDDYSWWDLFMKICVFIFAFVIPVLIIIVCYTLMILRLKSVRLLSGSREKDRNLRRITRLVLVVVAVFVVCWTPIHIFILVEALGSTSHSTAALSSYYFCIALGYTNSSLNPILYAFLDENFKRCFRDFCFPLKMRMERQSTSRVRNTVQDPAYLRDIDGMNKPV
Description: as §1

DOR = biological target: T2, DOR (Homo sapiens, UniProt P41143); assay: β-arrestin-1 recruitment to DOR (NanoBiT, U87 cells); type: cell-based
T2 construct: expressed in transfected cells; host or cells: U87 cells, transient co-transfection of pNBe vectors
T2 sequence (P41143 whole entry): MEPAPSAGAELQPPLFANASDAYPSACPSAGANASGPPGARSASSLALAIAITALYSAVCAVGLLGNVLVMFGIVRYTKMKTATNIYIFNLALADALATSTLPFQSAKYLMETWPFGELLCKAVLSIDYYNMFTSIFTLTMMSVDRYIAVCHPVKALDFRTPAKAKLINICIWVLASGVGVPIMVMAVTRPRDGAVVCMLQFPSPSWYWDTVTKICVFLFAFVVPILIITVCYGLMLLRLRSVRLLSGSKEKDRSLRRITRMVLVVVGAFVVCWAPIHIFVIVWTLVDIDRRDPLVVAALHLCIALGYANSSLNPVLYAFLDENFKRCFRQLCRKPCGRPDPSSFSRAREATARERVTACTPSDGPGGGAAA
Description: as §1

MOR = biological target: T3, MOR (Homo sapiens, UniProt P35372); type: cell-based
T3 construct: expressed in transfected cells; host or cells: U87 cells, transient co-transfection of pNBe vectors
T3 sequence (P35372 whole entry): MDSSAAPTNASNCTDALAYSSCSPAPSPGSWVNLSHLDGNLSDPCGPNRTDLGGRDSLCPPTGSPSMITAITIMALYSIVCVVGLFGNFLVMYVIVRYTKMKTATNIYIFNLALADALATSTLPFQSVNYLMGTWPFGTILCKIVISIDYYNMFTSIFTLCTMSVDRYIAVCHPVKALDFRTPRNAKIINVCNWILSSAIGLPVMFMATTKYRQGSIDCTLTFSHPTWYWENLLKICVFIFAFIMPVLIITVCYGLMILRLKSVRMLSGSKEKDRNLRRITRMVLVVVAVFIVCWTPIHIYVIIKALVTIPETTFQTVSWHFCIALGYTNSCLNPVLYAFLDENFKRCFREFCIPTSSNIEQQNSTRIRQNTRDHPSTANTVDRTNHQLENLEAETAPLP
Description: as §1

smNPCs = assay: Uptake of labelled dynorphin A (1-13) by smNPCs, imaging flow cytometry; type: cell-based, human
Description: U87 cells derived from human brain glioblastoma were obtained through the NIH AIDS Reagent Program from Dr. Deng and Dr. Littman. U87 stably expressing ACKR3 and CXCR4 were generated as previously described in Szpakowska, M. et al. Different contributions of chemokine N-terminal features attest to a different ligand binding mode and a bias towards activation of ACKR3/CXCR7 compared with CXCR4 and CXCR3. Br J Pharmacol 175, 1419-1438 (2018). U87 cells were grown in Dulbecco's modified Eagle medium (DMEM) supplemented with 15% foetal bovine serum and penicillin/streptomycin (100 Units/ml and 100 μg/ml). U87-ACKR3 and U87-CXCR4 were maintained under puromycin (1 μg/ml) selective pressure. smNPCs (small molecule neural precursor cells) derived from a healthy donor (C1-1) whose informed consent was obtained, were grown on Geltrex™-coated surface in N2B27 medium supplemented with 0.5 μM Purmorphamine, 3 μM CHIR 99021 and 150 μM ascorbic acid. N2B27 medium consisted of DMEM/F12 and NeuroBasal medium 50:50 with 0.5% N2 supplement, 1% B27 supplement lacking vitamin A, 1% GlutaMAX and 1% penicilin/streptomycin. Medium was renewed every other day.
Cells were distributed into 96-well plates (2×10^5 cells/well in Opti-MEM for U87 and U87-ACKR3 and 3×10^5 cells/well in N2B27 medium for smNPCs). […] For comparison of labelled opioid peptide-uptake by ACKR3 or classical opioid receptors, 1.2×10^6 U87 cells were seeded in 10-cm dishes and transfected 48 hours later with 4 μg pcDNA3.1 plasmid encoding ACKR3 or KOR, MOR or NOP. 48 hours post transfection, cells were harvested and treated as described above. Dead cells were excluded using Zombie NIR or Zombie Green viability dye (BioLegend) for FAM-labelled peptides and Cy5-labelled peptides, respectively. Images of 1×10^4 in-focus, living single cells were acquired with an ImageStream MKII imaging flow cytometer (Amnis) using 40× magnification (60× magnification for smNPCs). Samples were analysed using Ideas6.2 software. The number of spots per cell was determined using a mask-based software wizard.

ACKR3 [5] = biological target: T1, ACKR3; assay: Uptake of fluorescently labelled opioid peptides by ACKR3-expressing U87 cells, imaging flow cytometry; type: cell-based; parameters: expressed in transfected cells; for the receptor comparison in the uptake assay, transient pcDNA3.1); details: 40 minutes at 37° C.
Target sequence in this assay (P25106 whole entry, the tested form may be a part): as the sequence (P25106 whole entry, the tested form may be a part) above
Description: Visualization of Fluorescently Labelled Opioid Peptides Uptake by Imagestream

With CC[C@H](C)[C@H](NC(=O)[C@H](CCCNC(=N)N)NC(=O)[C@H](CCCNC(=N)N)NC(=O)[C@H](CC(C)C)NC(=O)[C@H](Cc1ccccc1)NC(=O)CNC(=O)CNC(=O)[C@@H](N)Cc1ccc(O)cc1)C(=O)N[C@@H](CCCNC(=N)N)C(=O)N1CCC[C@H]1C(=O)N[C@@H](CCCCN)C(=O)N[C@@H](CC(C)C)C(=O)N[C@@H](CCCCN)C(=O)N[C@@H](Cc1c[nH]c2ccccc12)C(=O)N[C@@H](CC(=O)O)C(=O)N[C@@H](CC(N)=O)C(=O)N[C@@H](CCC(N)=O)C(=O)O [dynorphin A] the pEC50 ([1]; LIH383 3 μM group, read-out: EC50 of dynorphin for inhibition of firing, one aberrant individual value that was omitted) was 6.25, the “concentration giving total inhibition of neuron depolarization (neuronal firing)” value ([1]; explants of rat locus coeruleus) was 1 µM and the “apparent potency to activate KOR in the presence of ACKR3-expressing cells” value (ACKR3 [2]) was “impaired”.

With C=CCN1CC[C@]23c4c5ccc(O)c4O[C@H]2C(=O)CC[C@@]3(O)[C@H]1C5 [naloxone] the “effect of dynorphin A (1 μM) on neuronal firing rate after naloxone pretreatment” value [1] was “did not lead to a change in neuronal firing rate”.

With Oc1ccc2c3c1O[C@H]1c4[nH]c5c(c4C[C@@]4(O)[C@@H](C2)N(CC2CC2)CC[C@]314)C[C@@]1(O)[C@H]2Cc3ccc(O)c4c3[C@@]1(CCN2CC1CC1)[C@H]5O4 [nor-binaltrophimine, reference compound] the “activity of opioid modulators towards ACKR3 in β-arrestin recruitment” value (ACKR3 [3]; 10 μM, 1 μM and 100 nM) was “Weak activation of ACKR3”.

In the case of “CXCL10: irrelevant (negative control) chemokine”, the “reversal of the ACKR3-mediated impairment of dynorphin A potency to activate KOR by pre-treatment” value (ACKR3 [2]) was “not”.

“CXCL11: C—X—C motif chemokine 11, endogenous ACKR3 chemokine ligand” gave a pEC50 (ACKR3 [3]; U87 cells, read-out: EC50 in inducing β-arrestin recruitment to ACKR3) of 8.66.

With FGGFMRRF (peptide 44) [SEQ ID NO: 69] the pEC50 (ACKR3 [4]) was 7.96.

FGGFMRRFR (peptide 45) [SEQ ID NO: 70] gave a pEC50 (ACKR3 [4]) of 7.79.

For FGGFMRRKR (peptide 2) [SEQ ID NO: 4], the pEC50 (ACKR3 [4]) was 8.95.

In the case of FGGFMRRV [adrenorphin Y1F variant], the “reduction of potency towards KOR as compared to WT adrenorphin” value (KOR) was “over 100 fold”, the “reduction of potency towards DOR as compared to WT adrenorphin” value (DOR) was “over 100 fold” and the “reduction of potency towards MOR as compared to WT adrenorphin” value (MOR) was “over 100 fold”. The “impact of adrenorphin modification on activity towards ACKR3 (versus adrenorphin), in words” value (ACKR3 [3]; β-arrestin-1 recruitment, U87 cells) was “tenfold improvement in potency”.

For “FGGFMRRV* (mother peptide) [compound 35]”, the pEC50 (ACKR3 [4]) was 8.03.

In the case of FGGFMRRVR (peptide 3) [SEQ ID NO: 5], the pEC50 (ACKR3 [4]) was 8.40.

Work on FGGWMRRF (peptide 47) [SEQ ID NO: 72] yielded a pEC50 (ACKR3 [4]) of 7.72.

FGGWMRRFR (peptide 46) [SEQ ID NO: 71] was tested, and the pEC50 (ACKR3 [4]) was 7.72.

FGGWMRRK (peptide 4) [SEQ ID NO: 6] showed a pEC50 (ACKR3 [4]) of 8.39.

Work on FGGWMRRKR (peptide 6) [SEQ ID NO: 11] yielded a pEC50 (ACKR3 [4]) of 8.13.

Work on FGGWMRRV (peptide 43) [SEQ ID NO: 68] yielded a pEC50 (ACKR3 [4]) of 7.98.

Molecule FGGWMRRVR (peptide 5) [SEQ ID NO: 10] has a pEC50 (ACKR3 [4]) of 8.27.

For “MRRKFGGF [LIH383 ctrl, control peptide consisting of the 8 amino acids building LIH383 in a different arrangement, reference compound]”, the “reversal of the ACKR3-mediated impairment of dynorphin A potency to activate KOR by pre-treatment” value (ACKR3 [2]) was “not” and the “effect of pretreatment on uptake of labelled dynorphin A (1-13) by smNPCs” value (smNPCs; 3 μM, 15 minutes pre-treatment) was “not”.

With YGGFMRRV* (adrenorphin) [compound 32] the pEC50 (ACKR3 [4]) was 6.96.

“dynorphin 2-13: endogenous truncated dynorphin variant [reference compound]” was tested, and the “β-arrestin recruitment to ACKR3: agonist activity/potency in words” value (ACKR3 [3]; U87 cells) was “activated”.

For “dynorphin 2-17: endogenous truncated dynorphin variant (GGFLRRIRPKLKWDNQ; listed as Homo sapiens) [reference compound]”, the “β-arrestin recruitment to ACKR3: agonist activity/potency in words” value (ACKR3 [3]; U87 cells) was “activated”.

For “dynorphin A 1-13: endogenous opioid peptide, fragment of dynorphin A (YGGFLRRIRPKLK) [reference compound]”, the “uptake of the fluorescently labelled peptide by ACKR3-expressing cells (also versus classical opioid receptor)” value (ACKR3 [5]) was “more efficient compared to that of KOR” and the “accumulation of the labelled peptide by smNPCs” value (smNPCs; 250 nM, 40 minutes at 37° C.) was “able to accumulate”.
